What all share (experiment): Kinase selectivity, DiscoverX scanMAX Kinase assay panel (% control)
Common to all, as to format: binding

The target of assay [1] is T1, kinases of the scanMAX Kinase assay panel (Homo sapiens, UniProt P29317).
T1 construct: purchased DiscoverX Co. (contract measurement) scanMAX Kinase assay panel
The note with it: EPHA2; 1 uM. The essentials:
(§1)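 Read-out is % control, normalised so a positive-control compound sits at 0% and DMSO at 100%: (test − positive)/(negative − positive)×100. Each kinase received the compound at 1 uM in DMSO. A value below 35% counts as activity.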

In assay [2] the target is T2, kinases of the scanMAX Kinase assay panel (Homo sapiens, UniProt Q9BZL6).
T2 construct: purchased DiscoverX Co. (contract measurement) scanMAX Kinase assay panel
T2 sequence (Q9BZL6 1-878): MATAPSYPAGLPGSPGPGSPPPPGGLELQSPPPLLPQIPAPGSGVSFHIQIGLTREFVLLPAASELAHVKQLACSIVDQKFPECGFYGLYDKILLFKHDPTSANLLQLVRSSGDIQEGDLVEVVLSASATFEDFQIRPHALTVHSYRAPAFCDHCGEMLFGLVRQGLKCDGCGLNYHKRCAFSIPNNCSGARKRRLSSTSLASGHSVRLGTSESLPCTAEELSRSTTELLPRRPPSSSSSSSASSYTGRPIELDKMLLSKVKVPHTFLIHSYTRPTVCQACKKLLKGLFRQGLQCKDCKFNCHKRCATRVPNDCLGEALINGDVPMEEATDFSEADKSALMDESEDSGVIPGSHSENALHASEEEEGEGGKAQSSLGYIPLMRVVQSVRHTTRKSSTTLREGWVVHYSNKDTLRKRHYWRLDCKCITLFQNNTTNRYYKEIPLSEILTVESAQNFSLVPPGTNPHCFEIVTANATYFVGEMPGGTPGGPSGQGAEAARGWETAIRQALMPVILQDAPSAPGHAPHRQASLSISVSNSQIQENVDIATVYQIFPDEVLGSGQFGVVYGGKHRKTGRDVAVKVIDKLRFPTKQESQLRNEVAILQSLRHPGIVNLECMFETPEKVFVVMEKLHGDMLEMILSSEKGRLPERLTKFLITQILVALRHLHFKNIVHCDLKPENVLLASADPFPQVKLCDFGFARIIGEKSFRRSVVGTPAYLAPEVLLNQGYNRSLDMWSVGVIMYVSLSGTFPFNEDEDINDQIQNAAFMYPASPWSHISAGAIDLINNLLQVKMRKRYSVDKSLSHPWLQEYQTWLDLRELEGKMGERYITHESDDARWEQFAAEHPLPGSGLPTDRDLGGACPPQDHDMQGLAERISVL
The note with it: PRKD2; 1 uM. The essentials:
as §1

In assay [3] the target is T3, kinases of the scanMAX Kinase assay panel (Homo sapiens, UniProt P22607).
T3 construct: purchased DiscoverX Co. (contract measurement) scanMAX Kinase assay panel
The note with it: FGFR3; 1 uM. The essentials:
as §1

Assay [4] concerns the target T4, kinases of the scanMAX Kinase assay panel (Homo sapiens, UniProt Q14164).
T4 construct: purchased DiscoverX Co. (contract measurement) scanMAX Kinase assay panel
T4 sequence (Q14164 1-716): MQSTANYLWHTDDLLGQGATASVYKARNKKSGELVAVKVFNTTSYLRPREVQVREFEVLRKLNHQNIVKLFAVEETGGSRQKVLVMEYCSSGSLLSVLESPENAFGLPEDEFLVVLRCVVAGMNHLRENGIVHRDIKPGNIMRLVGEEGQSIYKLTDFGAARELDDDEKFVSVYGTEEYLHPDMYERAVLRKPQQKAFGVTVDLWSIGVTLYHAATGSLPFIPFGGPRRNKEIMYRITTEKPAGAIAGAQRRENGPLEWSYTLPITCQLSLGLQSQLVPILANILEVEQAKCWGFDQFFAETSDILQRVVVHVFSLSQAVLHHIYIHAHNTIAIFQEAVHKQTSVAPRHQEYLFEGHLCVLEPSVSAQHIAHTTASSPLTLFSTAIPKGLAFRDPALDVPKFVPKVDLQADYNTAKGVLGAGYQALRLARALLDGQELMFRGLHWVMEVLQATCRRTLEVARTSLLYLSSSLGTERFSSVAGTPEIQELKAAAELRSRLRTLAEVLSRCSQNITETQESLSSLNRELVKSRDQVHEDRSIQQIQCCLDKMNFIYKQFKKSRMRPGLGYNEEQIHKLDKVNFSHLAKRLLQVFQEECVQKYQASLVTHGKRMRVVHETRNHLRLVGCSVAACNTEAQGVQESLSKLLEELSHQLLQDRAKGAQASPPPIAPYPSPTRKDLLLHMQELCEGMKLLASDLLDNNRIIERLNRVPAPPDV
The note with it: IKK-epsilon; 1 uM. An outline of the steps:
as §1

The target in assay [5] is T5, kinases of the scanMAX Kinase assay panel (Homo sapiens, UniProt O14733).
T5 construct: purchased DiscoverX Co. (contract measurement) scanMAX Kinase assay panel
T5 sequence (O14733 1-419): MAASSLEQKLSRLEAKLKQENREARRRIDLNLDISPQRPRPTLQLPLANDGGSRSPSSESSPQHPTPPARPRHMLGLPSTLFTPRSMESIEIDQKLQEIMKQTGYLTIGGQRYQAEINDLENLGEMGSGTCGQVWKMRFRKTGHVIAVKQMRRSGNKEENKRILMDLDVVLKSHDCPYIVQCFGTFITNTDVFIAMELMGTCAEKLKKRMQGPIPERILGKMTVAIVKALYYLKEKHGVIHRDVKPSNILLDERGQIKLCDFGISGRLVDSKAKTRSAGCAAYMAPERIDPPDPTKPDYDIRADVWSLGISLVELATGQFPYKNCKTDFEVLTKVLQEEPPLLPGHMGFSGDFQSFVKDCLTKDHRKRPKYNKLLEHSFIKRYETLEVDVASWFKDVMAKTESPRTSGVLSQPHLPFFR
The conditions noted are these: MKK7; 1 uM. The essentials:
as §1

T1 sequence (P29317 24-976): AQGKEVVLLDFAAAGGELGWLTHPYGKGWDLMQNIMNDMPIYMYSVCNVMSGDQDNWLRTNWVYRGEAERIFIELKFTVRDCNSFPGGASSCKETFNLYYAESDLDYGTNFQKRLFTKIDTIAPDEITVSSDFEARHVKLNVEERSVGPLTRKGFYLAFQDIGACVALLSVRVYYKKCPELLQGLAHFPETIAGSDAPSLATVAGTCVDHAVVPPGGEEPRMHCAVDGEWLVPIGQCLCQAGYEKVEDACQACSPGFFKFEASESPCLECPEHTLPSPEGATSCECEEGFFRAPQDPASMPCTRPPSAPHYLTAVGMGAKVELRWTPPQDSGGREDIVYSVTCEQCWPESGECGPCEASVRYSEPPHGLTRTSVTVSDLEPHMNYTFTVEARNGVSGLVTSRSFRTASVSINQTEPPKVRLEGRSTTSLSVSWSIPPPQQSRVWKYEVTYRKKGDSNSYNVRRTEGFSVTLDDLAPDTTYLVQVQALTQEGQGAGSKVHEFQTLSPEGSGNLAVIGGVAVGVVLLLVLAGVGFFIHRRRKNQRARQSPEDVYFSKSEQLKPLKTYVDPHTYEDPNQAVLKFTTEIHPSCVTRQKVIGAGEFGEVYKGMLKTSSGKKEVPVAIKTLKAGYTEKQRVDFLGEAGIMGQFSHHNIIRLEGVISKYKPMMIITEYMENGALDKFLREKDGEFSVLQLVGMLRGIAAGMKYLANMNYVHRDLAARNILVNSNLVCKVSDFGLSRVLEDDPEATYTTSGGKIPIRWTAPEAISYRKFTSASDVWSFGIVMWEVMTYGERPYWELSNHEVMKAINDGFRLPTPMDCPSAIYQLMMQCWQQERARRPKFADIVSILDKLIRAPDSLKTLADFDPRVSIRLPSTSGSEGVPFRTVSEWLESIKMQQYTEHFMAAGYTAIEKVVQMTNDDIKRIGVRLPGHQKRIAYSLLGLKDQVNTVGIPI
T3 sequence (P22607 23-806): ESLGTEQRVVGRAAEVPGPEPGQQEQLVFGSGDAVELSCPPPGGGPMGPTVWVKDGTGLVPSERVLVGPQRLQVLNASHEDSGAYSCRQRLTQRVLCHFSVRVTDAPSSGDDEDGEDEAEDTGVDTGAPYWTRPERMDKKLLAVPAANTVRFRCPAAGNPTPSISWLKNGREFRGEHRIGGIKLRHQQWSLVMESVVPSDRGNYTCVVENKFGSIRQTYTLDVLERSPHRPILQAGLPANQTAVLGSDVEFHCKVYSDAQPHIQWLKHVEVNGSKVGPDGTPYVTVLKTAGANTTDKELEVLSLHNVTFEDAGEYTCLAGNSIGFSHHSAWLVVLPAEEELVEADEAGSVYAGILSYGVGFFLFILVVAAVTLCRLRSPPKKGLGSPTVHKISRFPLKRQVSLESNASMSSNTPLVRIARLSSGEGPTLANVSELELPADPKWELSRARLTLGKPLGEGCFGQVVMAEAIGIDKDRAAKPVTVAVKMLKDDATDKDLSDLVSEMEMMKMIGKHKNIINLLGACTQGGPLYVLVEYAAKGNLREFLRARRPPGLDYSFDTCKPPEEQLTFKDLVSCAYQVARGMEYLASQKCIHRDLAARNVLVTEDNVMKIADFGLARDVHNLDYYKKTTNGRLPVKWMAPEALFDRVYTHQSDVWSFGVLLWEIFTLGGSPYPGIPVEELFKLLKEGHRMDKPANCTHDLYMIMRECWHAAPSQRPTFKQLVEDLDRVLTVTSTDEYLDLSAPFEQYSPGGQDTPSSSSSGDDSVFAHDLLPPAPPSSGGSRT

With `CNc1nc(Nc2ccc(C(=O)N3CCOCC3)cc2OC)nc2[nH]cc(C#N)c12` [Example 1, 2-((2-methoxy-4-(morpholine-4-carbonyl)phenyl)amino)-4-(methylamino)-7H-pyrrolo[2,3-d]pyrimidine-5-carbonitrile], the remaining binding at 1 µM in assay [1] stood at 97%; in assay [2] it was 28%; in assay [3] it was 100%; in assay [4], 98%; in assay [5], 48%.
The matching figures for `CC1(Nc2nc(Nc3cnn([C@H]4CCN(C5COC5)C[C@@H]4F)c3Cl)nc3[nH]cc(C#N)c23)CC1` [Example 52, 2-((5-chloro-1-((3S,4S)-3-fluoro-1-(oxetane-3-yl)piperidine-4-yl)-1H-pyrazole-4-yl)amino)((1-methylcyclopropyl)amino)-7H-pyrrolo[2,3-d]pyrimidine-5-carbonitrile]: 79%, 9.1%, 9.8%, 9.9% and 6.1%.
Consider `CCNc1nc(Nc2ccc(C(=O)N3CCC(N4CCOCC4)CC3)cc2OC)nc2[nH]cc(C(F)(F)F)c12` [Example 104, (4-((4-(ethylamino)-5-(trifluoromethyl)-7H-pyrrolo[2,3-d]pyrimidine-2-yl)amino)-3-methoxyphenyl)(4-morpholinopiperidine-1-yl)methanone], for which the remaining binding at 1 µM is 100% in assay [1]; 16% in assay [2]; 100% in assay [3]; 95% in assay [4]; 100% in assay [5].

Source of the values: patent US11208412B2 (DAEGU-GYEONGBUK MEDICAL INNOVATION FOUNDATION, priority 2017, dated 2021).
